Laboratory results published in PubChem BioAssay (NCI).
Where “and” joins values, the source holds several entries; their conditions need not be identical. Identical values can stand only once.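 96-well plates; 48 h exposure; 5 concentrations. Endpoints by linear interpolation between flanking doses. Not reached: highest tested concentration assigned. Definition used: TGI = concentration required for complete inhibition of growth.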

Tests used:
Test in all cases: growth of human tumour cells (NCI), 48 h
[1] = tested on: SF-539 CNS
[2] = tested on: RXF 393 renal
[3] = tested on: PC-3 prostate
[4] = tested on: A549 NSCLC
[5] = tested on: SN12C renal
[6] = tested on: EKVX NSCLC
[7] = tested on: SK-MEL-2 melanoma
[8] = tested on: HCC-2998 colon
[9] = tested on: IGROV1 ovarian
[10] = tested on: SF-268 CNS
[11] = tested on: COLO 205 colon
[12] = tested on: ACHN renal
[13] = tested on: SW-620 colon
[14] = tested on: KM12 colon
[15] = tested on: DU-145 prostate
[16] = tested on: MOLT-4 leukemia
[17] = tested on: TK-10 renal
[18] = tested on: OVCAR-5 ovarian
[19] = tested on: CCRF-CEM leukemia
[20] = tested on: HL-60(TB) leukemia

| SMILES | TGI [1] | TGI [2] | TGI [3] | TGI [4] | TGI [5] | TGI [6] | TGI [7] | TGI [8] | TGI [9] | TGI [10] | TGI [11] | TGI [12] | TGI [13] | TGI [14] | TGI [15] | TGI [16] | TGI [17] | TGI [18] | TGI [19] | TGI [20] |
| --- | --- | --- | --- | --- | --- | --- | --- | --- | --- | --- | --- | --- | --- | --- | --- | --- | --- | --- | --- | --- |
| CCOC(=O)CSc1nc2ccccc2c(=O)n1N | > 100 µM | > 100 µM | > 100 µM | > 100 µM | > 100 µM | > 100 µM | > 100 µM | > 100 µM | > 100 µM | > 100 µM | > 100 µM | > 100 µM | > 100 µM | > 100 µM | > 100 µM | > 100 µM | > 100 µM | > 100 µM | – | – |
| CNC(=O)Nc1cc2c3c(c1)CCCN3CCC2 | > 10 µM | > 10 µM | > 10 µM | > 10 µM | > 10 µM | > 10 µM | > 10 µM | > 10 µM | > 10 µM | > 10 µM | > 10 µM | > 10 µM | > 10 µM | > 10 µM | > 10 µM | – | > 10 µM | > 10 µM | > 10 µM | – |
| Cc1ccc(S(=O)(=O)Nn2c(-c3ccccc3)c(C#N)c(-c3ccc(Cl)cc3)c(C#N)c2=O)cc1 | 55.7 µM | > 100 µM | 98 µM | > 100 µM | > 100 µM | – | 52.4 µM | > 100 µM | – | – | 65.3 µM | > 100 µM | > 100 µM | – | – | 52.8 µM | > 100 µM | > 100 µM | 60.4 µM | 31.7 µM |
| CC(=O)c1ccc(-c2oc(-c3ccccc3)cc2-c2ccc3c(c2)OCO3)s1 | > 100 µM | > 100 µM | – | – | > 100 µM | > 100 µM | – | > 100 µM | > 100 µM | > 100 µM | > 100 µM | > 100 µM | > 100 µM | – | > 100 µM | > 100 µM | > 100 µM | > 100 µM | 2.99 µM | 2.36 µM |
| CO/C(=N/N1CC1C(F)(F)F)c1ccncc1 (configuration not stated) | – | > 100 µM | – | – | > 100 µM | – | > 100 µM | – | > 100 µM | – | > 100 µM | – | – | > 100 µM | > 100 µM | > 100 µM | – | > 100 µM | > 100 µM | > 100 µM |
| CN(C)CCOc1cc2c(c3ccccc13)-c1ccccc1C2=O | 3.27 µM | 5.3 µM | – | 22 µM | 7.43 µM | 18.5 µM | 3.44 µM | 4.68 µM | 7.35 µM | 3.24 µM | 3.68 µM | – | 3.87 µM | 3.03 µM | – | 3.92 µM | – | 7.05 µM | 10.8 µM | 2.7 µM |
| COC(=O)[C@@H]1O[C@]12C(CO[Si](C)(C)C(C)(C)C)OC(n1ccc(=O)[nH]c1=O)C2O[Si](C)(C)C(C)(C)C (some centres not stated) | 38 µM | – | 68.1 µM | > 100 µM | 85.7 µM | 62.6 µM | 33.2 µM | > 100 µM | 46.1 µM | > 100 µM | 69.7 µM | 54.1 µM | > 100 µM | 77.9 µM | 61.1 µM | 76.5 µM | 83.9 µM | 77.5 µM | > 100 µM | 62.6 µM |
| CCOC(=O)C(NNS(=O)(=O)c1ccc(C)cc1)S(=O)(=O)C(F)(F)C(F)(F)C(F)(F)C(F)(F)F (configuration not stated) | > 100 µM | – | > 100 µM | > 100 µM | > 100 µM | > 100 µM | > 100 µM | > 100 µM | > 100 µM | > 100 µM | > 100 µM | > 100 µM | > 100 µM | > 100 µM | > 100 µM | > 100 µM | > 100 µM | > 100 µM | – | > 100 µM |
| CCC1(O)CC(OC2CC(N(C)C)C(OC3CC(O)C(OC4OC(C)C(=O)C=C4N)C(C)O3)C(C)O2)c2c(O)c3c(c(O)c2C1C(=O)OC)C(=O)c1cccc(O)c1C3=O (configuration not stated) | 0.236 µM | – | 0.294 µM and 0.0742 µM | – | 1.13 µM | 0.351 µM and 0.0968 µM | 0.0272 µM | 0.118 µM | – | 0.299 µM | 0.116 µM | – | 0.0845 µM | 0.2 µM | 0.0461 µM | – | 0.0778 µM | 0.16 µM and 0.966 µM | 0.0761 µM and 0.0126 µM | 0.108 µM |
| NC(=O)/N=C(\N)NC(=O)c1ccccc1 | – | > 100 µM | > 100 µM | > 100 µM | > 100 µM | > 100 µM | > 100 µM | > 100 µM | > 100 µM | – | – | > 100 µM | > 100 µM | > 100 µM | > 100 µM | > 100 µM | > 100 µM | > 100 µM | – | > 100 µM |
| O=C(O)C(Cc1cccs1)NC(=O)C(F)(F)F (configuration not stated) | > 100 µM | > 100 µM | – | > 100 µM | > 100 µM | > 100 µM | > 100 µM | > 100 µM | > 100 µM | > 100 µM | > 100 µM | – | > 100 µM | > 100 µM | – | > 100 µM | – | > 100 µM | > 100 µM | > 100 µM |
| O=C(Sc1c(-c2ccccc2)c(=O)n(-c2ccccc2)c(=S)n1-c1ccccc1)c1ccc(Cl)cc1 | > 100 µM | > 100 µM | – | > 100 µM | > 100 µM | > 100 µM | – | > 100 µM | > 100 µM | > 100 µM | > 100 µM | > 100 µM | > 100 µM | > 100 µM | > 100 µM | > 100 µM | > 100 µM | > 100 µM | > 100 µM | > 100 µM |
| C#CCCCC(=C)C[C@H](OCc1ccccc1)[C@H]1OC(=O)[C@@H]1C | 68.5 µM | > 100 µM | > 100 µM | > 100 µM | > 100 µM | > 100 µM | > 100 µM | > 100 µM | – | > 100 µM | – | > 100 µM | > 100 µM | > 100 µM | – | – | > 100 µM | > 100 µM | > 100 µM | > 100 µM |
